Here are results for four compounds from ChEMBL document CHEMBL5223145, “A small molecule binding to TGGAA pentanucleotide repeats that cause spinocerebellar ataxia type 31” (Bioorg Med Chem Lett, 2023).

Calls of active or inactive are those of the source. The calls are words filed in the database; no cut-off is given here.

Experiment [1] is described as follows: Stabilization of GGA/GGA-motif DNA (unknown origin) assessed as increase in melting temperature.
The nature of experiment [2]: Stabilization of GGC/GGC -motif DNA (unknown origin) assessed as increase in melting temperature.
Experiment [3] is described as follows: Stabilization of AGG/AGG-motif DNA (unknown origin) assessed as increase in melting temperature.
Experiment [4] is described as follows: Stabilization of GGA/AGG-motif DNA (unknown origin) assessed as increase in melting temperature at 5 to 10 uM. Conditions: dose 5-10 µM.
A short description of experiment [5]: Stabilization of GGA/AGA-motif DNA (unknown origin) assessed as increase in melting temperature at 5 to 10 uM. As to conditions: dose 5-10 µM.
A short description of experiment [6]: Stabilization of AGA/AGA-motif DNA (unknown origin) assessed as increase in melting temperature at 5 to 10 uM. As to conditions: dose 5-10 µM.
Experiment [7] is described as follows: Stabilization of GGA/AAA-motif DNA (unknown origin) assessed as increase in melting temperature at 5 to 10 uM. As to conditions: dose 5-10 µM.
The nature of experiment [8]: Stabilization of AGA/AAA-motif DNA (unknown origin) assessed as increase in melting temperature at 5 to 10 uM. As to conditions: dose 5-10 µM.
Experiment [9] can be described thus: Stabilization of AAA/AAA-motif DNA (unknown origin) assessed as increase in melting temperature at 5 to 10 uM. Conditions: dose 5-10 µM.
A short description of experiment [10]: Binding affinity to GGA/GGA-motif hairpin DNA (unknown origin) assessed as association constant by isothermal titration calorimetry. On the technique in general: Isothermal titration calorimetry measures the heat released or taken up as one component is titrated into another.
A short description of experiment [11]: Stabilization of TGGAA DNA (unknown origin) assessed as increase in melting temperature at 2 to 20 uM. As to conditions: dose 2-20 µM.

`Cc1ccc2ccc(NC(=O)OCCCNCCCOC(=O)Nc3ccc4ccc(C)nc4n3)nc2n1`: the Tm in experiment [1] is 6 °C. Further, the outcome in experiment [2] was inactive. For the same compound, in [3], the outcome was Active.
In the case of `Cc1ccc2ccc(NC(=O)CCN(CCC(=O)Nc3ccc4ccc(C)nc4n3)C(=O)CCCN)nc2n1`, the Tm in [1] was 13.8 °C; in experiment [2], 4.6 °C; in experiment [4], 13.8 °C; in experiment [5], 9.8 °C; in [6] it was 11.6 °C; in [7], -1.2 °C. The Tm is 0.3 °C in experiment [8], -1.2 °C in experiment [9] and 68.5 °C in [11]. Further, the outcome in experiment [3] was inactive. In [10], the Ka was 2.5 10^7/M.
Consider `Cc1ccc2ccc(NC(=O)CCN(CCCCN)CCC(=O)Nc3ccc4ccc(C)nc4n3)nc2n1`, for which the Tm in experiment [1] turned out to be 6 °C. Moreover, the result in [2] was inactive. Besides, the result in [3] was Active.
Take `Cc1ccc2ccc(NC(=O)CCNCCC(=O)Nc3ccc4ccc(C)nc4n3)nc2n1`: the Tm in experiment [1] amounted to 7.5 °C; in experiment [2], 1.8 °C. Moreover, the outcome in [3] was Active.
